# Measurements as given in ChEMBL document CHEMBL3638506, “Conjugated 3-(indolyl)- and 3-(azaindolyl)-4-arylmaleimide compounds and their use in tumor treatment” (2015).
# Target: Glycogen synthase kinase-3 beta (Homo sapiens, UniProt P49841)
# Experiment: Kinase Assay: The effect of test compounds on the activity of the protein kinases GSK-3β, VEGFR-2 and FLT-3 was evaluated based on half maximal inhibitory concentration (IC50) values determined by Millipore UK Ltd; Gemini Crescent; Dundee Technology Park; Dundee DD2 1SW; UK (IC50Profiler). Detailed protocols can be found at: www.millipore.com/drugdiscovery/dd3/assayprotocols.
# Glycogen synthase kinase-3 beta, sequence (P49841 whole entry): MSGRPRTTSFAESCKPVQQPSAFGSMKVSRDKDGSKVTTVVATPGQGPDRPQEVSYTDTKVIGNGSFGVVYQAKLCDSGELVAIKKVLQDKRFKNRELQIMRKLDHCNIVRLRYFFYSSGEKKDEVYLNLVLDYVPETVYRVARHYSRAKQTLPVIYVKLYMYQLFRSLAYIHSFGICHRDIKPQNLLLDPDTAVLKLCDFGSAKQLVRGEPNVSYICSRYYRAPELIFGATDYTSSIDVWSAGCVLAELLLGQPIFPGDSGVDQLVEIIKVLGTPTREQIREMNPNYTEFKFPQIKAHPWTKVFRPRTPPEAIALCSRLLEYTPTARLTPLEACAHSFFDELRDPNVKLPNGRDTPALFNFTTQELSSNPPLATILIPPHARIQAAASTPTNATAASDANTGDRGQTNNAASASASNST
compound,measurement,value
COc1cc(C2=C(c3cn(CCCO)c4ccccc34)C(=O)NC2=O)cc(OC)c1OC,IC50,3.39 µM
